In patent publication US12486246B2, “Replication protein A (RPA)-DNA interaction inhibitors” (THE TRUSTEES OF INDIANA UNIVERSITY, priority 2019, dated 2025):

Legend:
[1] = molecular target: T1, full length heterotrimeric human RPA (Homo sapiens, UniProt P27694); test: Electrophoretic mobility shift assay (EMSA), binding of full length human RPA to ssDNA; settings: full length human RPA binding to DNA, mean ± SD of minimum triplicate experiments
T1 construct: Full length, heterotrimeric human RPA (fl-RPA) and DBD-A/B constructs were expressed and purified; made in house
T1 sequence (P27694 whole entry): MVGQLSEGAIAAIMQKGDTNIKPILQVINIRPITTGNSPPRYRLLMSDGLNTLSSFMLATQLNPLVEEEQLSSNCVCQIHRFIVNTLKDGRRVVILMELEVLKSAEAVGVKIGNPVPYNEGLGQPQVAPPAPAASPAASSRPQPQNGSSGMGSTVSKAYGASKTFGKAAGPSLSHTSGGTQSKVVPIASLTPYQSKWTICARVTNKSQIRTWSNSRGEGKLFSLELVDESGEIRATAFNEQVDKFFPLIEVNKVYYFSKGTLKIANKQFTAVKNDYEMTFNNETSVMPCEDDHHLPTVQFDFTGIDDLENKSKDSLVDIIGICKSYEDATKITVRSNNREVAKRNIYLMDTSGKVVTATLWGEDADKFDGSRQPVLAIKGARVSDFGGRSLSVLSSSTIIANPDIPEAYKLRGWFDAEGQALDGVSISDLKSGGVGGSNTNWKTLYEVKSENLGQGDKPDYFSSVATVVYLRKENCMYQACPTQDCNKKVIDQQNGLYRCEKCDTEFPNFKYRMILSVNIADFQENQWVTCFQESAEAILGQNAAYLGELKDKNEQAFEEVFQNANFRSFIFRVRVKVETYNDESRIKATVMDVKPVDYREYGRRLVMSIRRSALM
T1 sequence (P15927 whole entry partner): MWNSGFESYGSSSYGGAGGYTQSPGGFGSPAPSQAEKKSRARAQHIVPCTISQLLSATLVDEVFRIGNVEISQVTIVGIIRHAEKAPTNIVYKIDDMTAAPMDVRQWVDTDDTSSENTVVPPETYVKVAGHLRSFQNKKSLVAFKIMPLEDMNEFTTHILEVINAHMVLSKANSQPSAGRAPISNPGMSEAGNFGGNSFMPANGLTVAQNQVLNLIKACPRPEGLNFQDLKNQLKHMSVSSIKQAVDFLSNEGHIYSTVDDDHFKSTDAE
T1 sequence (P35244 whole entry partner): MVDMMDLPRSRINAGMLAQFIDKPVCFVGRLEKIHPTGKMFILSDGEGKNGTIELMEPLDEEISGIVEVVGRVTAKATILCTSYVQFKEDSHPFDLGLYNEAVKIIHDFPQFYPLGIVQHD
Outline: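 Full-length human RPA (50 nM) preincubated 30 min with compound (DMSO ≤5%), then 2.5 nM 5′-32P 34-base ssDNA added for 5 min at room temperature in 20 mM HEPES pH 7.8, 50 mM NaCl. Bound/unbound resolved by 6% native PAGE, phosphorimager quantified; IC50 by non-linear regression.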

[2] = molecular target: T2, RPA-AB construct (RPA70 AB domain) (Homo sapiens, UniProt P27694); test: Differential scanning fluorimetry (DSF); type: binding
T2 construct: The DBD-A/B construct was expressed as a His6-RPA181-422 fusion protein; His6 (N); made in house; host or cells: E. coli BL21 (DE3)
T2 sequence (P27694 181-422): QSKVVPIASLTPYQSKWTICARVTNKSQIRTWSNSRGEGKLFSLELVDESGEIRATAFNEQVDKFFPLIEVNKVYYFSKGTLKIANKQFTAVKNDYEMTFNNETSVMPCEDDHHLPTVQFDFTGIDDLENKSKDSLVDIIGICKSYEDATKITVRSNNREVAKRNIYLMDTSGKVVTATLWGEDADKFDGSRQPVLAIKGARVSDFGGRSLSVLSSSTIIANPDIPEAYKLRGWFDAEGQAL
Protocol: In order to probe the potential role of DNA intercalation as a mechanism for RPA inhibition, compounds 19, 23, 26, 27, 43 and 45 were analyzed using FID assay along with doxorubicin (Dox) as a positive control. […] In addition, direct binding of 9 derivatives to the target protein was assessed using a differential scan fluorimetry (DSF) assay. This assay assesses the melting profile of a protein at increasing temperatures via fluorescent dye binding. The direct interaction of a small molecule to the target protein can either increase or decrease the melting temperature (Tm) of the target depending on the specific protein and their interactions. […] Heparin sulfate, a known RPA interacting molecule often used in the purification of the protein was used as a control. […] (data not shown). […] (FIG. 1B).
The interaction of compound 43 with RPA-AB constructs was performed by differential scanning fluorimetry using GloMelt™ Dye (Biotum). […] Reactions were run in an ABI 7500 real time PCR machine with temperature increasing from 25° C. to 99° C. at a 2% ramp (˜40 minutes) and fluorescence of the reporter was measured on the SYBR® Green setting. […] Data was uploaded to TSA-CRAFT software and Tm calculated as described by Lee et al. Heparin was employed as a positive control of binding to the AB-box of RPA.

[3] = system: A2780 epithelial ovarian cancer (EOC) cells; test: Cell survival, single agent; type: cell-based
Protocol: (§1) Cell survival was determined by CCK-8 viability assay and/or clonogenic survival assay in 96 well plates or 24 well plates, respectively and combination index (CI) analysis of drug-drug interactions determined by Chou-Talalay analysis as we have previously described. • 1) CCK-8 metabolic assay: Cells were plated (2500 cells/well) in 96-well plate and allowed to grow for at least 18 hours in at 37° C. in the presence of 5% CO2 before treatment with inhibitor for 48 hours. CCK-8 solution (Dojindo) was added to 10% of the total media volume and after 1-4 hours of incubation absorbance at 450 nm was determined using BioTek® Synergy™ H1 hybrid multi-mode microplate reader • 2) Clonogenic survival assay: Cells were plated in a 24 well (20,000 cells/well) plate, incubated for at least 18 hours and then treated with inhibitor. […] Images of the stained colonies were captured with a Fuji LAS-3000 CCD system then counted using OpenCFU software. Viability is determined as a percent of vehicle controls and plotted versus drug concentration. • 3) Assessment of synergy via combination index (CI): In the combination index studies, cells (H460 or SKGT4) were treated with RPA inhibitor and Pt/etoposide/bleomycin/taxol/DDR inhibitor alone as well as the combination of both—the inhibitor and the DNA damaging chemotherapeutic agent/DDR inhibitor. […]

[4] = system: GCT27 testicular cancer cells; test: Cell survival, single agent; type: cell-based
Protocol: as §1

IC50 [1]: 4.99 ± 0.28 µM
increase in Tm [2]: 0.6 °C
Structure (SMILES): CCOc1ccc2cc(C3CC(c4ccc(I)cc4)=NN3C(=O)CCCC(=O)NCCCN3CCOCC3)c(Cl)nc2c1 (stereo not shown) [Compound 43, 5-(5-(2-Chloro-7-ethoxyquinolin-3-yl)-3-(4-iodophenyl)-4,5-dihydro-1H-pyrazol-1-yl)-N-(3-morpholinopropyl)-5-oxopentanamide]
cytotoxicity as compared to H460 NSCLC cells [3]: increased cytotoxicity
cytotoxicity as compared to H460 NSCLC cells [4]: increased cytotoxicity
